{"source": "patent US20250304623A1", "about": "“PEPTIDES FOR INTRACELLULAR DELIVERY” (UNIVERSIDADE DE SANTIAGO DE COMPOSTELA, priority 2022, published 2025)", "format_in_all_cases": "cell-based", "key": {"ARPE19 cells": {"system": "ARPE19 cells", "assay": "RLuc pDNA delivery, robotic library screening, ARPE19"}, "[1]": {"system": "ARPE19 cells expressing EGFP", "assay": "Cas9-RNP delivery against EGFP (gene editing, plate reader), ARPE19", "description": "To generate an EGFP expressing HeLa cell line, HeLa cells were transfected with EGFP pDNA (pEGFP-C1, Clontech) and stable transfectants were selected with 400 μg/mL of G-418 (Millipore). Green clones were selected by epifluorescence microscopy and tested for EGFP expression stability through several passages. […] All other EGFP-expressing cell lines were obtained in a similar way from parent non-EGFP-expressing cell lines.\nCells expressing EGFP were seeded in a 96 well plate the day before the experiment at a concentration of 50,000 cell/mL (100 μL/w) in DMEM+10% FBS+1% Gln-Abt. For robotic library screening, the delivery of Cas9-RNP against EGFP (RNP designed to knock-out the gene encoding for the enhanced green fluorescent protein (EGFP)) was performed. For RNP assembly, 9.2 μL of crRNA and 9.2 μL of tracrRNA were mixed in 211.6 μL of Nuclease-Free Duplex Buffer (IDT), incubated for 5 min at 95° C. and slowly cooled at rt (see I. Lostalé-Seijo, et al. Peptide/Cas9 nanostructures for ribonucleoprotein cell membrane transport and gene edition, Chem. Sci., 2017). Cas9 protein was dissolved in DMEM at a final concentration of 4 μM and equal volumes of the RNA complex and Cas9 were mixed and incubated for 5 min at rt. 75 μL of the corresponding amphiphile concentrations were added to 5 μL of RNP at 2 μM. The mixture was shaken for 30 min at room temperature before the addition to the cells. The cell medium was aspirated, and cells were washed twice with PBS. Cells were covered with 30 μL of DMEM and 20 μL of the RNP/amphiphile complexes were added to the cells (final peptide concentrations=2.5, 5 and 10 μM; final Cas9-RNP concentration=50 nM) and incubated for 4 h. After the incubation, the medium was replaced by 100 μL of fresh DMEM supplemented with 10% FBS. The total EGFP fluorescence was quantified after 72 h in a plate reader (FIG. 2, Table 1 (right) and Table 6). All experiments were done in triplicate. […]\nTables 26-31 show the mean (triplicates) percentage of gene editing, accounted by GFP fluorescence intensity decrease (% of reduction), measured after the transfection of Cas9-RNP by different amphiphiles at different concentrations in a variety of cell lines. Background values, accounted by untreated control cells, were subtracted for processing."}, "Hela cells": {"system": "Hela cells", "assay": "RLuc pDNA delivery, robotic library screening, HeLa", "description": "Cells were seeded in a 96 well plate the day before the experiment at a concentration of 60,000 cell/mL (100 μL/w) in DMEM+10% FBS+1% Gln-Abt. For robotic library screening, the delivery of pDNA encoding for the expression of Renilla luciferase gene (RLuc, pRL-CMV (Promega, #E2261)) in six different cell lines was performed. […] The mixture was shaken for 30 min at room temperature before the addition to the cells. The cell medium was aspirated, and cells were washed twice with PBS. Finally, 50 μL of the complex's solution were added to the cells and incubated for 4 h. After the incubation, the medium was replaced by 100 μL of fresh DMEM supplemented with 10% FBS. 72 hours after transfection the DMEM was removed, cells were washed once with HBSS and 90 μL of HBSS were added to each well. Cells were incubated at 37° C. for 30 minutes. Then basal luminescence levels were read in a plate reader. Immediately, 10 μL of coelenterazine h in HBSS were added to each well (5 μM final concentration) and cells were incubated at 37° C. for 10 minutes. Finally, the total luminescence measurement of the plates was performed. Amphiphile transfection efficiency was compared and normalized to Lipofectamine® 2000 efficiency (value of 1 in Tables 1-5 and 7; bold numbers). All experiments were done in triplicate.\nTables 1-7: RLuc (pDNA) or EGFP (mRNA) expression levels were normalized to Lipofectamine reagents (value=1) and expressed as fold-times signal increase. In the case of siRNA, the siRNA treated cells fluorescence was compared with siMOCK control fluorescence, while Cas9-RNP mediated knockout was measured against the fluorescence of untreated cells. In both siRNA and Cas9-RNP, values are expressed as % fluorescence reduction. Amphiphile concentration was 5 μM in all cases. All experiments were performed in triplicate.\nTables 8-13 show the mean (triplicates) luminescent intensity (RLU) measured after the transfection of RLuc pDNA by different amphiphiles at different concentrations in a variety of cell lines. Background luminescence values, accounted by untransfected control cells, were subtracted for processing."}}, "note": "*: point of attachment. NHNH2 = NN*"}
{"substance": "Ac-RRLK*RLLRRLK*RL-NH2 (Ac-RRLK(NHNH2)RLLRRLK(NHNH2)RL-NH2; not fully specified; printed as Ac-RRLK*RLLRRLK*RL-NH2; also: K*4,K*11: native or modified lysine (ε-amide to a linker)) [Peptide 13.2]", "values": [{"measurement": "mean luminescent intensity (RLuc pDNA)", "setting": "ARPE19 cells; Oleyl, 5 μM", "result": 1077, "unit": "RLU"}, {"measurement": "mean luminescent intensity (RLuc pDNA)", "setting": "ARPE19 cells; Oleyl, 10 μM", "result": 499, "unit": "RLU"}, {"measurement": "mean luminescent intensity (RLuc pDNA)", "setting": "ARPE19 cells; Oleyl, 15 μM", "result": 641, "unit": "RLU"}, {"measurement": "percentage of gene editing, GFP fluorescence intensity decrease (% of reduction)", "setting": "[1]; Oleyl, 5 μM", "result": 13, "unit": "%"}, {"measurement": "percentage of gene editing, GFP fluorescence intensity decrease (% of reduction)", "setting": "[1]; Oleyl, 10 μM", "result": "−7", "unit": "%"}]}
{"substance": "Ac-RHLK*RHK*RRLK*RH-NH2 (Ac-RHLKRHKRRLKRH-NH2; not fully specified (residues 4, 7, 11); printed as Ac-RHLK*RHK*RRLK*RH-NH2; also: linker on K* not given here) [13(3His)]", "values": [{"measurement": "mean luminescent intensity (RLuc pDNA)", "setting": "ARPE19 cells; Dodecanal, 5 μM", "result": 11495, "unit": "RLU"}, {"measurement": "mean luminescent intensity (RLuc pDNA)", "setting": "ARPE19 cells; Dodecanal, 10 μM", "result": 366, "unit": "RLU"}, {"measurement": "mean luminescent intensity (RLuc pDNA)", "setting": "ARPE19 cells; Myristoleyl, 5 μM", "result": 32411, "unit": "RLU"}, {"measurement": "mean luminescent intensity (RLuc pDNA)", "setting": "ARPE19 cells; Myristoleyl, 10 μM", "result": 1998, "unit": "RLU"}, {"measurement": "mean luminescent intensity (RLuc pDNA)", "setting": "ARPE19 cells; Myristoleyl, 15 μM", "result": 28, "unit": "RLU"}, {"measurement": "mean luminescent intensity (RLuc pDNA)", "setting": "ARPE19 cells; Oleyl, 5 μM", "result": 6754, "unit": "RLU"}, {"measurement": "mean luminescent intensity (RLuc pDNA)", "setting": "ARPE19 cells; Palmitoleyl, 5 μM", "result": 40629, "unit": "RLU"}, {"measurement": "mean luminescent intensity (RLuc pDNA)", "setting": "ARPE19 cells; Palmitoleyl, 10 μM", "result": 6400, "unit": "RLU"}, {"measurement": "mean luminescent intensity (RLuc pDNA)", "setting": "ARPE19 cells; Petroselinyl, 5 μM", "result": 33797, "unit": "RLU"}, {"measurement": "mean luminescent intensity (RLuc pDNA)", "setting": "ARPE19 cells; Petroselinyl, 10 μM", "result": 10940, "unit": "RLU"}, {"measurement": "mean luminescent intensity (RLuc pDNA)", "setting": "ARPE19 cells; Petroselinyl, 15 μM", "result": 3792, "unit": "RLU"}, {"measurement": "mean luminescent intensity (RLuc pDNA)", "setting": "Hela cells; HeLa, Oleyl, 5 μM", "result": 226412, "unit": "RLU"}, {"measurement": "mean luminescent intensity (RLuc pDNA)", "setting": "Hela cells; HeLa, Petroselinyl, 10 μM", "result": 115599, "unit": "RLU"}, {"measurement": "mean luminescent intensity (RLuc pDNA)", "setting": "Hela cells; Hela, Myristoleyl, 5 μM", "result": "−294", "unit": "RLU"}, {"measurement": "mean luminescent intensity (RLuc pDNA)", "setting": "Hela cells; Hela, Myristoleyl, 10 μM", "result": "−246", "unit": "RLU"}, {"measurement": "mean luminescent intensity (RLuc pDNA)", "setting": "Hela cells; Hela, Myristoleyl, 15 μM", "result": "−405", "unit": "RLU"}, {"measurement": "mean luminescent intensity (RLuc pDNA)", "setting": "Hela cells; Hela, Oleyl, 10 μM", "result": 180751, "unit": "RLU"}, {"measurement": "mean luminescent intensity (RLuc pDNA)", "setting": "Hela cells; Hela, Oleyl, 15 μM", "result": 31589, "unit": "RLU"}, {"measurement": "mean luminescent intensity (RLuc pDNA)", "setting": "Hela cells; Hela, Palmitoleyl, 5 μM", "result": 8590, "unit": "RLU"}, {"measurement": "mean luminescent intensity (RLuc pDNA)", "setting": "Hela cells; Hela, Petroselinyl, 5 μM", "result": 122581, "unit": "RLU"}, {"measurement": "mean luminescent intensity (RLuc pDNA)", "setting": "Hela cells; Hela, Petroselinyl, 15 μM", "result": 25022, "unit": "RLU"}, {"measurement": "percentage of gene editing, GFP fluorescence intensity decrease (% of reduction)", "setting": "[1]; Petroselinyl, 15 μM", "result": 34, "unit": "%"}]}
